Tests used:
[1] = target: T1, human adenosine A2a receptor (Homo sapiens (Human), UniProt P29274); test: A2a receptor competition binding assay ([3H]ZM241385); details: membranes of HEK293 cells expressing human A2a; [3H]ZM241385 2 nmol/l; Ki from IC50 by Cheng and Prusoff
Procedure: HEK293 cells, stably expressing the human adenosine A2a receptor gene (PerkinElmer, Boston, Mass., USA, cat. RBHA2AC), were grown in Falcon flasks in DMEM (Cambrex, Verviers, Belgium) supplemented with 10% FBS (Cambrex), 1 mmol/l sodium pyruvate (Sigma-Aldrich, Saint Louis, Mo., USA), 0.4 mg/ml G418 (Sigma-Aldrich) at 37° C. in a 5% CO2 atmosphere. For radioligand binding experiments, the cells were collected at 80% of confluence, in 5 mmol/l Tris-HCl (Sigma-Aldrich), pH 7.4, containing 2 mmol/l EDTA, counted, washed in PBS (Cambrex), resuspended in incubation buffer A containing 50 mmol/l Tris-HCl, pH 7.4, 10 mmol/l MgCl2 (Sigma-Aldrich) and homogenized using an Ultra Turrax T25. The membranes were centrifuged and homogenized once again and the final pellet was stored at −80° C. until use. Prior to the competition binding assay, the pellet was resuspended in buffer A at the desired protein concentration and membrane suspension was incubated with 2 U/ml adenosine deaminase (ADA, Sigma-Aldrich) for 30 min at 37° C. to remove endogenous adenosine.
The protein concentration of membrane suspension was determined using the Bradford method (Pierce, Rockford, Ill., USA) with bovine albumin as standard. Competition binding experiments were performed by incubating membranes (5-10 μg of protein/sample) with a single concentration of the A2a antagonist [^3H]ZM241385 (Biotrend, Cologne, Germany) (2 nmol/l), in the presence of various concentrations (ranging from 10^−5 to 10^−11 mol/l) of test and reference compounds in 96-well filter plates (MultiScreen system, cat. MAFBN0B10, Millipore, Billerica, Mass., USA) for one h at 4° C. in a total volume of 200 μl/well of appropriate buffer (50 mmol/l Tris-HCl, pH 7.4, 10 mmol/l MgCl2). Nonspecific binding was determined in the presence of 10 μmol/l cold ZM241385 (Tocris, Ellisville, Mo., USA). At the end of incubation, bound and free radioligands were separated by filtering the 96-well filter plates using a Millipore filtration apparatus (MultiScreenHTS vacuum manifold). Filter plates were then washed several times with ice-cold buffer (50 mmol/l Tris-HCl, pH 7.4) and filter-bound radioactivity measured using a MicroBeta counter (PerkinElmer) after addition of 30 μl/well of OptiPhase SuperMix scintillation cocktail (PerkinElmer). Four experiments were performed in triplicate by JANUS® automated workstation (Perkin Elmer).
Data were analyzed by nonlinear regression analysis with GraphPad PRISM commercial software and expressed as IC50, defined as the concentration of compounds that inhibits 50% of [^3H]ZM241385 binding. Inhibitory binding constant (Ki) values were calculated from IC50 values according to the Cheng and Prusoff equation Ki=IC50/(1+[C]/Kd), where [C] is the concentration of the radioligand and Kd its dissociation constant.

[2] = target: human adenosine A1 receptor (Homo sapiens (Human), UniProt P30542); test: A1 receptor competition binding assay ([3H]DPCPX); details: membranes of CHO-K1 cells expressing human A1; [3H]DPCPX 1.7 nmol/l; Ki from IC50 by Cheng and Prusoff
Sequence of human adenosine A1 receptor (P30542 whole entry): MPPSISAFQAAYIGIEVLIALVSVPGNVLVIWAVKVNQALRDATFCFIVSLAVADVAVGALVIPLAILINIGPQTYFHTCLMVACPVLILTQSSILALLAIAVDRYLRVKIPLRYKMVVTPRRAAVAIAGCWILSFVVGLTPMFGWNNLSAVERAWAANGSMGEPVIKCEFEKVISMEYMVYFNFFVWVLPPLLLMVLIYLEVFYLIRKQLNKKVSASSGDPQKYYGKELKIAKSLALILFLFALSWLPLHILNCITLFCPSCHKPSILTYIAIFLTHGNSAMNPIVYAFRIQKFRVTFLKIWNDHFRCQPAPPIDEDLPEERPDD
Procedure: Competition binding experiments have been performed incubating membranes from CHO-K1 cells stably transfected with the human adenosine A1 receptor (cat. ES-010-M400UA, Perkin Elmer, Boston, Mass., USA) (5-10 μg of protein/sample) with a single concentration of [3H]DPCPX (1.7 nmol/l) (Perkin Elmer), in the presence of various concentrations (ranging from 10^−5 to 10^−10 M) of cold DPCPX, ST4206 and ST4208 in 96-well filter plates (MultiScreen system, cat #MAFBN0B10, Millipore, Billerica, Mass., USA) for 60 min at 25° C. in a total volume of 200 μL/well of 25 mmol/l Hepes, 5 mmol/L MgCl2, 1 mmol/l CaCl2, 100 mmol/L NaCl, pH 7.4 (all from Sigma-Aldrich). Non-specific binding has been determined in the presence of 250 μmol/l of cold DPCPX (8-cyclopentyl-1,3-dipropylxanthine, Sigma-Aldrich). At the end of incubation, bound and free radioligands have been separated by filtering the 96-well filter plates using a Millipore filtration apparatus (MultiscreenHTS vacuum manifold). Filter plates have been washed several times with ice-cold buffer (50 mmol/l Tris-HCl, pH 7.4) and filter-bound radioactivity measured using a MicroBeta counter (PerkinElmer) after addition of 30 μL/well of OptiPhase SuperMix scintillation cocktail (PerkinElmer).
Data have been analyzed using nonlinear regression with GraphPad PRISM commercial software. Data will be expressed as test compound concentration causing a half maximal inhibition of control values (IC50). Inhibitory binding constant (Ki) values will be calculated from IC50 values, according to the Cheng and Prusoff equation K1=IC50/(1+[C]/Kd), where [C] is the concentration of the radioligand and Kd its dissociation constant.

[3] = target: T1, human adenosine A2a receptor; test: Inhibition of NECA-induced cAMP accumulation in HEK 293 cells; assay type: cell-based; details: HEK 293 cells expressing human A2a; 100 nmol/l NECA; mean of four experiments
Procedure: The compounds of the present invention were tested to assess their capacity to inhibit cAMP accumulation induced by the A2A agonist 5′-N-ethylcarboxamidoadenosine (NECA).
cAMP quantitative determination was performed with an enzyme immunoassay system (cat. RPN2255, Amersham Biosciences) according to manufacturer's instructions. HEK 293 cells, stably expressing the human adenosine A2a receptor gene (PerkinElmer, Boston, Mass., USA, cat. RBHA2AC), were grown in Falcon flasks in DMEM (Cambrex, Verviers, Belgium) supplemented with 10% FBS (Cambrex), 1 mmol/l sodium pyruvate (Sigma-Aldrich, St. Louis, Mo., USA), and 0.4 mg/ml G418 (Sigma-Aldrich) at 37° C. in a 5% CO2 atmosphere. Cells were plated on 96-well dishes at a concentration of 10^3 cells/well 48 hours before test compound exposure. Before cell stimulation with the compounds, cells were treated for 10 min at 37° C. with 0.5 mmol/l of the phosphodiesterase inhibitor Ro 20-1724 (Sigma-Aldrich) and with 2 U/ml of adenosine deaminase (ADA, Sigma-Aldrich). Medium was then changed with fresh medium containing scalar concentrations of test compounds (10^−10-10^−4 mol/l) at 37° C. and, after 10 min, 100 nmol/l NECA was added. cAMP was extracted 20 min after and quantified.
Data were analyzed by nonlinear regression analysis with GraphPad PRISM commercial software. Test compound concentrations causing a half maximal inhibition of control values (IC50 calculated by GraphPad Prism software) was reported (mean±SEM of four independent experiments).

[4] = tested on: battery of 51 different receptors; test: Selectivity profile: affinity toward a battery of 51 different receptors; assay type: binding, human; details: tested at 10 μM
From the text: The majority of the 51 assays were human recombinant receptors of the following types: adenosine, adrenergic, cannabinoid, dopamine, GABA, histamine, melatonin, muscarinic, prostanoid and serotonin receptors belonging to non peptide receptors family; angiotensin-II, bradychinin, chemokines, cholecistokinin, endothelin, galanin, melacortin, neurokinin, neuropeptide Y, neurotensin, opioid and opioid like, somatostatin, vasoactive intestinal peptide and vasopressin receptors belonging to peptide receptors family; Ca^2+ channel, K^+ channel and Na^+ channel belonging to the ion channel family and dopamine, norepinephrine and serotonin belonging to the amine transporters receptors family.” These three compounds were tested at a concentration of 10 μM.

6-OHDA lesioned rats = test: Enhancement of L-DOPA antiparkinsonian activity, 6-OHDA lesioned rats; assay type: in vivo, Rats (Sprague Dawley); details: 10, 20, 40 mg/kg with threshold dose of L-Dopa (6 mg benserazide + 3 mg L-DOPA); 6-OHDA rats
Procedure: Rats (Sprague Dawley) under chloral hydrate (400 mg/kg) anaesthesia were placed in a Kopf stereotaxic apparatus. Through a stainless steel cannula, 6-OHDA was injected at a rate of 1 μl/min into the left medial forebrain bundle at coordinates A=−2.2, L=+1.5 and V=−7.8, according to the Pellegrino atlas. All rats, including shams, were treated with desipramine (10 mg/kg) 10 min before anaesthesia to prevent damage to noradrenergic neurons.
Two weeks after the 6-OHDA injection, all animals were tested for their contra lateral rotation capacity in response to 30 mg/kg i.p. benserazide followed by 50 mg/kg i.p. of L-Dopa 30 min later. Rats not showing at least 200 contra lateral rotations within the 3 h testing period were eliminated from the study. One week after this test, selected animals were randomized to be enrolled in three studies. Each study involved seven groups of eight animals.
Tested compounds (ST3829, ST3932 and ST4206) were dissolved in a solution containing 10% sucrose and 0.3% Tween 80 in sterile water in order to obtain three different dosage forms (i.e., 10, 20 and 40 mg/kg).
In groups 5, 6 and 7 benserazide was administered first, followed by the tested compound 25 min after and finally by L-DOPA 5 min later.

[5] = tested on: haloperidol-induced catalepsy in CD1 mice; test: Haloperidol-induced catalepsy mice model; assay type: in vivo; details: oral 10, 20 or 40 mg/kg, haloperidol 2 mg/kg i.p., AUC of catalepsy time over 7 h
Procedure: Haloperidol (2 mg/kg) was injected i.p. to CD1 mice 2.5 h before oral administration of ST3932 or ST4206. The latter were administered at doses of 10, 20 or 40 mg/kg.
Then, each CD1 mouse was gently placed by its forepaws on a wire at a height of 4.5 cm. Catalepsy was measured as the time (expressed in seconds) necessary for the animal to step down with at least one forepaw, with an end point of 60 seconds, time after which the mouse was gently removed from the wire. Then, catalepsy was scored every 60 min for seven h.
All data were expressed both as individual and mean values, plus or minus standard error (Mean±SEM) of catalepsy time in seconds. Statistical analysis was performed using sigma stat program. After calculation of AUC throughout 7 hours, the one-way ANOVA followed by Dunnett's test were used.

T1 sequence (P29274 whole entry): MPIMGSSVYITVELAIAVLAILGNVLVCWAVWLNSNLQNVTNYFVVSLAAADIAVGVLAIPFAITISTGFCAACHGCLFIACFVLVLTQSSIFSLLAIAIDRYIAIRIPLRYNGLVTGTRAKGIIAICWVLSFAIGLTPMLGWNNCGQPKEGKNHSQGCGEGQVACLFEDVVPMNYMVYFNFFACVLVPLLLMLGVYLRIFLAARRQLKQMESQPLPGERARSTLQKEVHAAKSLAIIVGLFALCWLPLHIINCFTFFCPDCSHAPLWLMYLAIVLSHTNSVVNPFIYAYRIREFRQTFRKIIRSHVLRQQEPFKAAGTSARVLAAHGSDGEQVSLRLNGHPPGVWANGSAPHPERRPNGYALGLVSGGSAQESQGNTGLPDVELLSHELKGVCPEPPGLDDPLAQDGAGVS

SMILES	Ki [1] [nM]	Ki [2] [nM]	IC50 [3] [nM]	affinity toward 51 receptors [4]	contralateral turning behaviour induced by L-Dopa (6-OHDA lesioned rats)	antagonism of haloperidol-induced catalepsy [5]
CC(O)CCc1nc(N)c2nc(-n3nccn3)n(C)c2n1 (stereo not drawn) [Example 2, 4-(6-Amino-9-methyl-8[1,2,3]triazol-2-yl-9H-purin-2-yl)butan-2-ol]	8	27	450	none of them demonstrated any substantial affinity	increased the contralateral turning behaviour induced by L-Dopa	significantly antagonized haloperidol-induced catalepsy in a dose-dependent manner
C[C@@H](O)CCc1nc(N)c2nc(-n3nccn3)n(C)c2n1 [Example 4, (R)-4-(6-Amino-9-methyl-8-[1,2,3]triazol-2-yl-9H-purin-2-yl)butan-2-ol]	8		420			
C[C@H](O)CCc1nc(N)c2nc(-n3nccn3)n(C)c2n1 [Example 3, (S)-4-(6-Amino-9-methyl-8-[1,2,3]triazol-2-yl-9H-purin-2-yl)butan-2-ol]	19		260			

The next lines start with results.

Ki [1] [nM]	Ki [2] [nM]	IC50 [3] [nM]	SMILES	affinity toward 51 receptors [4]	contralateral turning behaviour induced by L-Dopa (6-OHDA lesioned rats)	antagonism of haloperidol-induced catalepsy [5]
22	120	2320	CCCC(O)c1nc(N)c2nc(-n3nccn3)n(C)c2n1 (stereo not drawn) [Example 5, 1-(6-Amino-9-methyl-8-[1,2,3]triazol-2-yl-9H-purin-2-yl)butan-1-ol]	none of them demonstrated any substantial affinity	efficacy of ST3829 at increasing the number of contralateral rotation	
19	216	2920	CCCC(=O)c1nc(N)c2nc(-n3nccn3)n(C)c2n1 [Example 6, 1-(6-Amino-9-methyl-8-[1,2,3]triazol-2-yl-9H-purin-2-yl)-butan-1-one]			
53	51	2120	Cn1c(-n2nccn2)nc2c(N)nc(CCCCO)nc21 [Example 1, 4-(6-Amino-9-methyl-8[1,2,3]triazol-2-yl-9H-purin-2-yl)butan-1-ol]	none of them demonstrated any substantial affinity		
12	197	990	CC(=O)CCc1nc(N)c2nc(-n3nccn3)n(C)c2n1 [Example 7, 4-(6-Amino-9-methyl-8[1,2,3]triazol-2-yl-9H-purin-2-yl)-butan-2-one]		increased the contralateral turning behaviour induced by L-Dopa	significantly antagonized haloperidol-induced catalepsy in a dose-dependent manner

From US9133197B2, “Oxidated derivatives of triazolylpurines useful as ligands of the adenosine A2A receptor and their use as medicaments” (SIGMA-TAU INDUSTRIE FARMACEUTICHE RIUNITE S.P.A., priority 2009, dated 2015)
